The source of these data is patent publication US20250122219A1 (priority 2023, published 2025).

Where two headings read alike, the source gives them in different places. Some results are limits rather than exact numbers.

Data set [1] concerns HIV-1 (IIIB). Briefly: Antiviral assay in MT-4 cells. The data set is classed as cell-based. In a few lines: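 Read-out: CellTiter-Glo luminescence after 5 days at 37 °C, reflecting survival of MT-4 cells infected with HIV-1 IIIB (1:250 fresh stock dilution) versus mock-infected. Compounds serially diluted into RPMI with 10% FBS; AZT at 5 μM served as positive control.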
The nature of data set [2]: Cytotoxicity assay in MT-4 cells. The class given is cell-based. The following applies: human; uninfected MT-4 cells, 5 days incubation, Cell Titer Glo; read-out: MT4 CC50. In a few lines:
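Viability read by Cell Titer Glo luminescence after 5 days at 37 °C. MT-4 cells, not infected, in complete RPMI (10% FBS), received compound dilution series. Base cytotoxicity set with […] puromycin.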

[3] abbreviates: Human immunodeficiency virus 1, MT4, 120 h, HIV-1 IIIB in MT-4 cells, 5 days incubation, Cell Titer Glo, read-out: MT4 EC50.

On to `COCCOCCOCCOCCOCCOCCOCCOC(=O)Oc1c2n(cc(C(=O)NCc3ccc(F)cc3F)c1=O)[C@@H]1CN(C2=O)[C@@H](C)CC[C@]12CC(C)=NO2` [Example 162, (3′S,5S,7′R)-10′-((2,4-difluorobenzyl)carbamoyl)-3,3′-dimethyl-1′,11′-dioxo-1′,4′,5′,11′-tetrahydro-3′H,4H,7′H-spiro[isoxazole-5,6′-[2,7]methanopyrido[1,2-a][1,4]diazonin]-12′-yl (2,5,8,11,14,17,20-heptaoxadocosan-22-yl) carbonate], for which the EC50 in data set [1] (setting [3]) is 2.42 nM. In addition, in data set [2], the CC50 at 5 days came to 27800 nM.
As for `COCCOCCOCCOCCOCCOCCOCCOC(=O)Oc1c2n(cc(C(=O)NCc3ccc(F)cc3F)c1=O)[C@@H]1CN(C2=O)[C@@H](C)CC[C@]12CC(OC)=NO2` [Example 163, (3′S,5S,7′R)-10′-((2,4-difluorobenzyl)carbamoyl)-3-methoxy-3′-methyl-1′,11′-dioxo-1′,4′,5′,11′-tetrahydro-3′H,4H,7′H-spiro[isoxazole-5,6′-[2,7]methanopyrido[1,2-a][1,4]diazonin]-12′-yl (2,5,8,11,14,17,20-heptaoxadocosan-22-yl) carbonate], in data set [1] (setting [3]), the EC50 was found to be 2.08 nM. For the same compound, the CC50 at 5 days in data set [2] was found to be 37600 nM.
Taken in the same sequence, the figures for `CCOC(=O)OCOc1c2n(cc(C(=O)NCc3ccc(F)cc3F)c1=O)[C@@H]1CN(C2=O)[C@@H](C)CC[C@]12CC(OC)=NO2` [Example 173, (((3′S,5S,7′R)-10′-((2,4-difluorobenzyl)carbamoyl)-3-methoxy-3′-methyl-1′,11′-dioxo-1′,4′,5′,11′-tetrahydro-3′H,4H,7′H-spiro[isoxazole-5,6′-[2,7]methanopyrido[1,2-a][1,4]diazonin]-12′-yl)oxy)methyl ethyl carbonate] were 4.75 nM and 37900 nM.
Taken in the same sequence, the figures for `CCCOC(=O)OCOc1c2n(cc(C(=O)NCc3ccc(F)cc3F)c1=O)[C@@H]1CN(C2=O)[C@@H](C)CC[C@]12CC(C)=NO2` [Example 174, (((3′S,5S,7′R)-10′-((2,4-difluorobenzyl)carbamoyl)-3,3′-dimethyl-1′,11′-dioxo-1′,4′,5′,11′-tetrahydro-3′H,4H,7′H-spiro[isoxazole-5,6′-[2,7]methanopyrido[1,2-a][1,4]diazonin]-12′-yl)oxy)methyl propyl carbonate] were 2.4 nM and 18100 nM.
Taken in the same sequence, the figures for `CCCOC(=O)OCOc1c2n(cc(C(=O)NCc3ccc(F)cc3F)c1=O)[C@@H]1CN(C2=O)[C@@H](C)CC[C@]12CC(OC)=NO2` [Example 175, (((3′S,5S,7′R)-10′-((2,4-difluorobenzyl)carbamoyl)-3-methoxy-3′-methyl-1′,11′-dioxo-1′,4′,5′,11′-tetrahydro-3′H,4H,7′H-spiro[isoxazole-5,6′-[2,7]methanopyrido[1,2-a][1,4]diazonin]-12′-yl)oxy)methyl propyl carbonate] were 2.06 nM and 23300 nM.
On to `CCCCOC(=O)OCOc1c2n(cc(C(=O)NCc3ccc(F)cc3F)c1=O)[C@@H]1CN(C2=O)[C@@H](C)CC[C@]12CC(C)=NO2` [Example 176, butyl ((((3′S,5S,7′R)-10′-((2,4-difluorobenzyl)carbamoyl)-3,3′-dimethyl-1′,11′-dioxo-1′,4′,5′,11′-tetrahydro-3′H,4H,7′H-spiro[isoxazole-5,6′-[2,7]methanopyrido[1,2-a][1,4]diazonin]-12′-yl)oxy)methyl) carbonate], for which the EC50 in data set [1] (setting [3]) stood at 0.284 nM. Also, in data set [2], the cytotoxic concentration (CC50) at 5 days was determined as 23000 nM.
On the same counts, the results for `CCCCOC(=O)OCOc1c2n(cc(C(=O)NCc3ccc(F)cc3F)c1=O)[C@@H]1CN(C2=O)[C@@H](C)CC[C@]12CC(OC)=NO2` [Example 177, butyl ((((3′S,5S,7′R)-10′-((2,4-difluorobenzyl)carbamoyl)-3-methoxy-3′-methyl-1′,11′-dioxo-1′,4′,5′,11′-tetrahydro-3′H,4H,7′H-spiro[isoxazole-5,6′-[2,7]methanopyrido[1,2-a][1,4]diazonin]-12′-yl)oxy)methyl) carbonate] are 0.366 nM and 23900 nM.
As to `CCCCCCCCOC(=O)OCOc1c2n(cc(C(=O)NCc3ccc(F)cc3F)c1=O)[C@@H]1CN(C2=O)[C@@H](C)CC[C@]12CC(C)=NO2` [Example 178, (((3′S,5S,7′R)-10′-((2,4-difluorobenzyl)carbamoyl)-3,3′-dimethyl-1′,11′-dioxo-1′,4′,5′,11′-tetrahydro-3′H,4H,7′H-spiro[isoxazole-5,6′-[2,7]methanopyrido[1,2-a][1,4]diazonin]-12′-yl)oxy)methyl octyl carbonate], the EC50 in data set [1] (Human immunodeficiency virus 1, IIIB, MT4, 120 h, read-out: MT4 EC50 (nM)) was determined as 2.64 nM. Further, in data set [2], the CC50 at 5 days came to 15800 nM.
As for `CCCCCOC(=O)OCOc1c2n(cc(C(=O)NCc3ccc(F)cc3F)c1=O)[C@@H]1CN(C2=O)[C@@H](C)CC[C@]12CC(C)=NO2` [Example 179, (((3′S,5S,7′R)-10′-((2,4-difluorobenzyl)carbamoyl)-3,3′-dimethyl-1′,11′-dioxo-1′,4′,5′,11′-tetrahydro-3′H,4H,7′H-spiro[isoxazole-5,6′-[2,7]methanopyrido[1,2-a][1,4]diazonin]-12′-yl)oxy)methyl pentyl carbonate], the EC50 in data set [1] (setting [3]) was found to be 0.527 nM. Further, in data set [2], the CC50 at 5 days was ≥ 50000 nM.
Taken in the same sequence, the figures for `CCCCCOC(=O)OCOc1c2n(cc(C(=O)NCc3ccc(F)cc3F)c1=O)[C@@H]1CN(C2=O)[C@@H](C)CC[C@]12CC(OC)=NO2` [Example 180, (((3′S,5S,7′R)-10′-((2,4-difluorobenzyl)carbamoyl)-3-methoxy-3′-methyl-1′,11′-dioxo-1′,4′,5′,11′-tetrahydro-3′H,4H,7′H-spiro[isoxazole-5,6′-[2,7]methanopyrido[1,2-a][1,4]diazonin]-12′-yl)oxy)methyl pentyl carbonate] were 0.274 nM and ≥ 50000 nM.
Taken in the same sequence, the figures for `CCCCCCOC(=O)OCOc1c2n(cc(C(=O)NCc3ccc(F)cc3F)c1=O)[C@@H]1CN(C2=O)[C@@H](C)CC[C@]12CC(C)=NO2` [Example 181, (((3′S,5S,7′R)-10′-((2,4-difluorobenzyl)carbamoyl)-3,3′-dimethyl-1′,11′-dioxo-1′,4′,5′,11′-tetrahydro-3′H,4H,7′H-spiro[isoxazole-5,6′-[2,7]methanopyrido[1,2-a][1,4]diazonin]-12′-yl)oxy)methyl hexyl carbonate] were 0.262 nM and 14700 nM.
Regarding `CCCCCCOC(=O)OCOc1c2n(cc(C(=O)NCc3ccc(F)cc3F)c1=O)[C@@H]1CN(C2=O)[C@@H](C)CC[C@]12CC(OC)=NO2` [Example 182, (((3′S,5S,7′R)-10′-((2,4-difluorobenzyl)carbamoyl)-3-methoxy-3′-methyl-1′,11′-dioxo-1′,4′,5′,11′-tetrahydro-3′H,4H,7′H-spiro[isoxazole-5,6′-[2,7]methanopyrido[1,2-a][1,4]diazonin]-12′-yl)oxy)methyl hexyl carbonate], in data set [1] (setting [3]), the EC50 was found to be 0.29 nM. Further, in data set [2], the CC50 at 5 days worked out at 47900 nM.
On the same counts, the results for `CCCCCCCOC(=O)OCOc1c2n(cc(C(=O)NCc3ccc(F)cc3F)c1=O)[C@@H]1CN(C2=O)[C@@H](C)CC[C@]12CC(C)=NO2` [Example 183, (((3′S,5S,7′R)-10′-((2,4-difluorobenzyl)carbamoyl)-3,3′-dimethyl-1′,11′-dioxo-1′,4′,5′,11′-tetrahydro-3′H,4H,7′H-spiro[isoxazole-5,6′-[2,7]methanopyrido[1,2-a][1,4]diazonin]-12′-yl)oxy)methyl heptyl carbonate] are 0.358 nM and 11400 nM.
Taken in the same sequence, the figures for `CCCCCCCOC(=O)OCOc1c2n(cc(C(=O)NCc3ccc(F)cc3F)c1=O)[C@@H]1CN(C2=O)[C@@H](C)CC[C@]12CC(OC)=NO2` [Example 184, (((3′S,5S,7′R)-10′-((2,4-difluorobenzyl)carbamoyl)-3-methoxy-3′-methyl-1′,11′-dioxo-1′,4′,5′,11′-tetrahydro-3′H,4H,7′H-spiro[isoxazole-5,6′-[2,7]methanopyrido[1,2-a][1,4]diazonin]-12′-yl)oxy)methyl heptyl carbonate] were 0.441 nM and 9980 nM.
For the compound `CCCCCCCCOC(=O)OCOc1c2n(cc(C(=O)NCc3ccc(F)cc3F)c1=O)[C@@H]1CN(C2=O)[C@@H](C)CC[C@]12CC(OC)=NO2` [Example 185, (((3′S,5S,7′R)-10′-((2,4-difluorobenzyl)carbamoyl)-3-methoxy-3′-methyl-1′,11′-dioxo-1′,4′,5′,11′-tetrahydro-3′H,4H,7′H-spiro[isoxazole-5,6′-[2,7]methanopyrido[1,2-a][1,4]diazonin]-12′-yl)oxy)methyl octyl carbonate], the EC50 in data set [1] (setting [3]) came out at 5.14 nM. Besides, the CC50 at 5 days in data set [2] is ≥ 50000 nM.
On the same counts, the results for `CCCCCCCCCOC(=O)OCOc1c2n(cc(C(=O)NCc3ccc(F)cc3F)c1=O)[C@@H]1CN(C2=O)[C@@H](C)CC[C@]12CC(C)=NO2` [Example 186, (((3′S,5S,7′R)-10′-((2,4-difluorobenzyl)carbamoyl)-3,3′-dimethyl-1′,11′-dioxo-1′,4′,5′,11′-tetrahydro-3′H,4H,7′H-spiro[isoxazole-5,6′-[2,7]methanopyrido[1,2-a][1,4]diazonin]-12′-yl)oxy)methyl nonyl carbonate] are 2.24 nM and ≥ 50000 nM.
